As usually defined, the Ki is the equilibrium dissociation constant of an inhibitor or competing ligand from its target.

This passage reports Ki results from ChEMBL document CHEMBL1142661, “Structure-based drug discovery using GPCR homology modeling: successful virtual screening for antagonists of the alpha1A adrenergic receptor” (J Med Chem, 2005).

The target in the test is T1, Alpha-1A adrenergic receptor (Homo sapiens, UniProt P35348).
T1 sequence (P35348 whole entry): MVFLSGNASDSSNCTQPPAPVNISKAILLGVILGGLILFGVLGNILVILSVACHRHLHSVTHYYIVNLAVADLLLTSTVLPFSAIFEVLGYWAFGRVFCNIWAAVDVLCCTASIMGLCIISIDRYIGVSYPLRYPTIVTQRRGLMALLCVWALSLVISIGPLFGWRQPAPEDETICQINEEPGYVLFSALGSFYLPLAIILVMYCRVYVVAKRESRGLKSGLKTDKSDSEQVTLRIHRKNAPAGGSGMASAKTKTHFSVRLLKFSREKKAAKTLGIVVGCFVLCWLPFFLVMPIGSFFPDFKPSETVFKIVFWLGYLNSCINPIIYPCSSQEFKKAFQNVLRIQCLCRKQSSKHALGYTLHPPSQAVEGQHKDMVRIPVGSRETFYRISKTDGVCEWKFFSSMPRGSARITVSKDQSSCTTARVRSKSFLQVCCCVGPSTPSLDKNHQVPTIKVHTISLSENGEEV
As to the kind of experiment: Inhibition of [3H]prazosin binding to human adrenergic alpha-1A receptor expressed in CHO-K1 cell membranes.
Consider `Clc1ccc(C2(Cn3ccnc3)OCC(CN3CCN(CCc4ccccc4)CC3)O2)c(Cl)c1` (centres undefined), for which the affinity, expressed as Ki, was 300 nM.

Consider `COc1ccccc1N1CCN(CCCNc2cc(O)nc(Nc3c(Cl)cccc3Cl)n2)CC1`, for which the Ki amounted to 3.6 nM. Compared with the last molecule, the Ki is about 83-fold lower.

The molecule `Nc1ccc(C(=O)NCCN2CCC(c3cccc4[nH]ccc34)CC2)cc1` gave a Ki of 9.5 nM.

`O=C(NCCCCN1CCN(c2csc3cc(F)ccc23)CC1)c1cnccn1` showed a Ki of 1.4 nM.
